{
  "source": "patent US8435549B2",
  "about": "“Halogen alkoxy spirocyclic tetramic and tetronic acid derivatives” (Bayer Cropscience AG, priority 2007, dated 2013)",
  "key": {"[1]": {"tested_on": "cotton aphid (Aphis gossypii)", "test": "Enhancement of activity by ammonium/phosphonium salts, Aphis gossypii test", "assay_type": "in vivo", "details": "Aphis gossypii on cotton, active compound 4 ppm", "experimental": "(§1) To produce a suitable preparation of active compound, 1 part by weight of active compound is mixed with the stated amounts of solvent and emulsifier, and the concentrate is diluted with emulsifier-containing water to the desired concentration. For application with ammonium or phosphonium salts, these are added to the spray liquor in a concentration of 1000 ppm.\nCotton plants (Gossypium hirsutum) which are heavily infested by the cotton aphid (Aphis gossypii) are treated by spraying to runoff point with the active compound preparation of the desired concentration.\nAfter the desired period of time, the kill in % is determined. 100% means that all the aphids have been killed; 0% means that none of the aphids have been killed."}, "[2]": {"tested_on": "green peach aphid (Myzus persicae)", "test": "Enhancement of activity by ammonium/phosphonium salts in combination with penetrants, Myzus persicae test", "assay_type": "in vivo", "experimental": "as §1, with “with” for “with emulsifier-containing”, “salts and penetrants (rapeseed oil methyl ester 500 EW)” for “salts,”, “in each case in” for “in”\nBell pepper plants (Capsicum annuum) which are heavily infested by the green peach aphid (Myzus persicae) are treated by spraying to runoff point with the active compound preparation of the desired concentration. After the desired period of time, the kill in % is determined. 100% means that all animals have been killed; 0% means that none of the animals have been killed."}},
  "data": [
    {"molecule": "Cc1cc(Cl)cc(C)c1C1=C(O)[C@]2(CC[C@H](OCC(F)(F)F)CC2)NC1=O", "note": "[Example I-1-a-1]", "values": [
      {"measurement": "Kill rate/% after 6 days", "setting": "[1]; +AS (1000 ppm)", "value": 95, "unit": "%"},
      {"measurement": "Kill rate/% after 6 days", "setting": "[1]; without AS", "value": 25, "unit": "%"},
      {"measurement": "Kill rate/% after 6 days", "setting": "[2]; 0.8 ppm, +AS (1000 ppm)", "value": 0, "unit": "%"},
      {"measurement": "Kill rate/% after 6 days", "setting": "[2]; 0.8 ppm, +RME (1000 ppm)", "value": 0, "unit": "%"},
      {"measurement": "Kill rate/% after 6 days", "setting": "[2]; 0.8 ppm, +RME + AS (1000 ppm each)", "value": 95, "unit": "%"},
      {"measurement": "Kill rate/% after 6 days", "setting": "[2]; 0.8 ppm, no additive", "value": 0, "unit": "%"},
      {"measurement": "Kill rate/% after 6 days", "setting": "[2]; 4 ppm, +AS (1000 ppm)", "value": 90, "unit": "%"},
      {"measurement": "Kill rate/% after 6 days", "setting": "[2]; 4 ppm, +RME (1000 ppm)", "value": 99, "unit": "%"},
      {"measurement": "Kill rate/% after 6 days", "setting": "[2]; 4 ppm, +RME + AS (1000 ppm each)", "value": 100, "unit": "%"},
      {"measurement": "Kill rate/% after 6 days", "setting": "[2]; 4 ppm, no additive", "value": 95, "unit": "%"}
    ]}
  ]
}
